A short description of data set [1]: Experiment 4: EP2-preferential antagonist AH6809 and roflumilast-mediated side effects in rats. The note with it: four days. The format is in vivo, male Wistar rats. How it is done: Six male Wistar rats were given a daily dosage of 10 mg/kg AH-6809 (preferential EP2 antagonist) at 1300 hours. Six male Wistar rats were given a daily dosage of 10 mg/kg Roflumilast (PDE4 inhibitor) at 1300 hours.

The nature of data set [2]: Experiment 2: Lumiracoxib (COX-2 selective) / SC-560 (COX-1 selective) and roflumilast-mediated side effects in rats. It counts as in vivo, male Wistar rats. The following applies: four days. The source says:
Six male Wistar rats were given a daily dosage of 0.5%
For pharmacokinetic analysis (determining plasma levels of the substances) one rat from each group was used on day 4; these rats were no longer available for the investigation of other parameters.

Data set [3] can be described thus: Experiment 3: EP4 antagonist MF498 and roflumilast-mediated side effects in rats. The following applies: four days. The format is in vivo, male Wistar rats. As for the experimental part:
Six male Wistar rats were given a daily dosage of 0.5% Natrosol (Placebo) at 1300 hours.
Six male Wistar rats were given a daily dosage of 20 mg/kg MF-498 (EP4 antagonist) in each case at 1300 hours.
Six male Wistar rats were given a daily dosage of 10 mg/kg Roflumilast (PDE4 inhibitor) at 1300 hours.

A short description of data set [4]: Experiment 1: diclofenac and roflumilast-mediated side effects in rats.
Description: Six male Wistar rats in each group were treated for four days with the following substances (all substances are given p.o.=orally):
Group 1 (“Control Group”):
Six male Wistar rats were given a daily dose of 0.5% Natrosol (placebo) at the times 0800, 1300 and 1700 hours.
Group 2 (“Diclofenac Group”):
Six male Wistar rats were given a daily dose of 1 mg/kg of diclofenac (NSAID) at the times 0800 and 1700 hours and 0.5% Natrosol (placebo) at 1300 hours.
Group 3 (“Roflumilast Group”):
Six male Wistar rats were given a daily dose of 0.5% Natrosol (placebo) at 0800 and 1700 hours and 10 mg/kg roflumilast (PDE4 inhibitor) at 1300 hours.
Group 4 (“Roflumilast+Diclofenac Group”):
Six male Wistar rats were given a daily dose of 1 mg/kg diclofenac (NSAID) at the times 0800 and 1700 hours and 10 mg/kg roflumilast (PDE4 inhibitor) at 1300 hours.
For pharmacokinetic analysis (determining the plasma levels of the substances) on day 4 one rat from each group was used; these rats were no longer available for other parameters under investigation.
During the experiment the body weights of the animals were determined and the differences in the body weights of the rats from the different groups towards the end of the experiment were shown as a percentage change from the time of the first administration (=day 1, 0800 hours (=time t0)). The average±standard deviation of the body weights at time t0 was 355±17 g.
At the end of the experiment (day 5, 95 hours after t0 (=the time of the first administration on day 1, 0800)) the proportion of neutrophils (in % of white blood cells, FIG. 2) were determined from the blood of 4 or 5 of the rats from the individual groups. In addition, the weights of the animals' spleens were measured and the mesenteries were dissected for histopathological investigation for vasculitis (multifocal perivascular mononuclear/polymorphonuclear infiltration).
[5] abbreviates: 10 mg/kg p.o. + 10 mg/kg roflumilast p.o. at 1300 hours.
The mark [6] stands for this setting: 2 mg/kg p.o. at 0800 and 1700 hours + 10 mg/kg roflumilast p.o. at 1300 hours.
Setting [7] is: 20 mg/kg p.o. + 10 mg/kg roflumilast p.o. at 1300 hours.
[8] abbreviates: Roflumilast group: 10 mg/kg roflumilast p.o. daily.
The mark [9] stands for this setting: 1 mg/kg p.o. at 0800 and 1700 hours + 10 mg/kg roflumilast p.o. at 1300 hours, four days.

As to `CC(C)Oc1ccc2c(=O)c3cc(C(=O)O)ccc3oc2c1` [AH6809, 6-isopropoxy-9-oxoxanthene-2-carboxylic acid], in data set [1] (setting [5]), the “effect of co-administration on roflumilast-mediated loss of body weight (FIG. 13)” value was “no indications that the EP2 preferential receptor antagonist AH-809 had any influence”, the “effect of co-administration on roflumilast-mediated loss of spleen weight (FIG. 14)” value is given as “no indications that the EP2 preferential receptor antagonist AH-809 had any influence”, the “effect of co-administration on roflumilast-mediated mesenteric vasculitis (FIG. 16)” value was “no indications that the EP2 preferential receptor antagonist AH-809 had any influence” and the “effect of co-administration on roflumilast-mediated neutrophilia (FIG. 15)” value is on record as “no indications that the EP2 preferential receptor antagonist AH-809 had any influence”. Also, the “effect of EP2 blockage on the parameters measured (roflumilast-mediated side effects, overall)” value in data set [1] (10 mg/kg p.o. + 10 mg/kg roflumilast p.o.) is on record as “shows no effect on the parameters measured”. The “parameters measured after administration on its own (body weight, spleen weight, neutrophils, vasculitis)” value (“parameters measured after administration” for short) in data set [1] (10 mg/kg p.o. daily, without roflumilast) is on record as “very similar to the control group”.

`Cc1ccc(Nc2c(F)cccc2Cl)c(CC(=O)O)c1` [Lumiracoxib]: in data set [2] (setting [6]), the “effect of co-administration on roflumilast-mediated loss of body weight (FIG. 5)” value is on record as “substantially reduced or prevented”, the “effect of co-administration on roflumilast-mediated loss of spleen weight (FIG. 6)” value is “substantially reduced or prevented”, the “effect of co-administration on roflumilast-mediated mesenteric vasculitis (FIG. 8)” value is reported as “substantially reduced or prevented” and the “effect of co-administration on roflumilast-mediated neutrophilia (FIG. 7)” value is given as “substantially reduced or prevented”. Further, in data set [2] (2 mg/kg p.o. at 0800 and 1700 hours, without roflumilast), the “parameters measured after administration” value was “very similar to the control groups”.

As to `CCOc1c2c(c(OCC)c3ncccc13)CN(c1ccc(CS(=O)(=O)NC(=O)Cc3ccccc3OC)cc1C)C2=O` [MF-498, N-{[4-(5,9-diethoxy-6-oxo-6,8-dihydro-7H-pyrrolo[3,4-g]quinolin-7-yl)-3-methylbenzyl]sulphonyl}-2-(2-methoxyphenyl)acetamide], in data set [3] (setting [7]), the “effect of co-administration on roflumilast-mediated loss of body weight (FIG. 9)” value is recorded as “substantially reduced”, the “effect of co-administration on roflumilast-mediated loss of spleen weight (FIG. 10)” value is reported as “substantially reduced”, the “effect of co-administration on roflumilast-mediated mesenteric vasculitis (FIG. 12)” value is “substantially reduced” and the “effect of co-administration on roflumilast-mediated neutrophilia (FIG. 11)” value is on record as “substantially reduced”. Besides, the “differences in the weight of the spleen between the Roflumilast group and the Roflumilast+MF-498 group (statistics)” value in data set [3] (20 mg/kg p.o. + 10 mg/kg roflumilast p.o., two-way analysis of variance) is reported as “do not achieve statistical significance”. Also, the “parameters measured after administration” value in data set [3] (20 mg/kg p.o. daily, without roflumilast) is reported as “very similar to the control group”.

`O=C(Nc1c(Cl)cncc1Cl)c1ccc(OC(F)F)c(OCC2CC2)c1` [Roflumilast]: in data set [2] (setting [8]), the “loss of body weight (FIG. 5)” value is given as “observed”; the “loss of spleen weight (FIG. 6)” value is on record as “observed”; the “mesenteric vasculitis (monocyte/polymorphonuclear perivascular infiltration into the mesentery, FIG. 8)” value is reported as “observed”; the “neutrophilia (FIG. 7)” value is “observed”. Also, in data set [3] (setting [8]), the “loss of body weight (FIG. 9)” value is “observed”; the “loss of spleen weight (FIG. 10)” value was “observed”; the “mesenteric vasculitis (monocyte/polymorphonuclear perivascular infiltration into the mesentery, FIG. 12)” value is given as “observed”; the “neutrophilia (FIG. 11)” value is reported as “observed”. For the same compound, in data set [1] (setting [8]), the “loss of body weight (FIG. 13)” value is “observed”; the “loss of spleen weight (FIG. 14)” value is “observed”; the “mesenteric vasculitis (monocyte/polymorphonuclear perivascular infiltration in the mesentery, FIG. 16)” value is given as “observed”; the “neutrophilia (FIG. 15)” value was “observed”. In addition, in data set [4] (Roflumilast group: 10 mg/kg p.o. daily, six rats per group), the death of animals entry is “one rat from the roflumilast group which died between day 4 and day 5”.

Regarding `O=C(O)Cc1ccccc1Nc1c(Cl)cccc1Cl` [diclofenac], in data set [4] (setting [9]), the “effect of co-administration on roflumilast-mediated loss of body weight (FIG. 1)” value is listed as “substantially reduced or prevented”, the “effect of co-administration on roflumilast-mediated loss of spleen weight (FIG. 2)” value is recorded as “substantially reduced or prevented”, the “effect of co-administration on roflumilast-mediated mesenteric vasculitis (FIG. 4)” value is given as “substantially reduced or prevented” and the “effect of co-administration on roflumilast-mediated neutrophilia (FIG. 3)” value is on record as “substantially reduced or prevented”. For the same compound, the “parameters measured after administration” value in data set [4] (1 mg/kg p.o. at 0800 and 1700 hours, four days, without roflumilast) is on record as “very similar to the control groups”.
